Experimental data: patent US12187624B2, “Method of acylating amino acids and uses of N-acyl amino acid products” (NewSouth Innovations Pty Limited, priority 2019, dated 2025)
Where “and” joins values, the source holds several entries; their conditions need not be identical. Equal entries are not always repeated.

Experiments:
[1] = Critical micelle concentration (CMC) from conductivity versus surfactant concentration; format: physicochemical
Method: The CMC of N-octanoyl-cys prepared by this method was determined to be 0.1M. The CMC was determined using a Bench-Top water quality meter, SPER SCIENTIFIC Instrument model 860033 to measure the conductivity and pH of the surfactant solution. The CMC value of the surfactant was measured by plotting conductivity values versus different surfactant concentrations at pH 9 by adding NaOH solution (0.1 mol L^−1) and 25.0° C. The CMC was obtained as the point of sharp transition in the slope of conductivity with increasing surfactant concentration (data not shown).
The CMC of the N-octanoyl-cys surfactant prepared by Exemplary method 1, in Na^+ form at pH 8, was determined (as reported above for Comparative method 1 above from measurements of the electrical conductivity with surfactant concentration) to be about 0.09 mol/L, see FIG. 3.
The same protocols as described above were used to determine the CMC and melting point of the twice-recrystallised N-octyl-cysteine surfactant. The values measured were 0.1M and 145° C., respectively. These values are consistent with literature values.

[2] = Ion flotation of Cd solution in air bubble column, ICP-MS analysis; details: Csurfactant = 0.01M
Method: (§1) In a model experiment, 0.01M of the N-octanoyl-cys surfactant was dissolved (with heating around 65° C. while stirring) in a 5 mg L^−1 solution (i.e. 5 ppm) of Cd containing 0.1 M NaOH and finally made up to 100 ml using Milli-Q water, with the pH of around 8.
(§2) The solution was then poured into a column (with 30 cm height and 3 cm diameter) while a 2 L/min flow of air gas was passed through it with air pump (Hiblow HP40, Philippines). Two samples were taken after each of 30 and 60 minutes from around 2 cm top of the sinter, and the Cd concentrations of each sample was determined by ICP-MS analysis. The upper-outlet foam was also collected in a waste container using an outlet tube.
The same procedure was used with the N-octyl-cys surfactant in the flotation experiment, but where the pH of the solution was increased to 12, to enable this surfactant to successfully produce a foam (this difference is discussed later).

[3] = Ion flotation of calcium solution in air bubble column, ICP-MS analysis
Method: as §1, §2
In the second series of ion flotation experiments, N-octanoyl-cys surfactant (obtained by Exemplary method 1) was used for removing calcium ions using air in the ion flotation process.

[4] = Foaming test of surfactant solutions at different pH; format: physicochemical; details: Csurfactant = 0.01M; solutions at pH 3, 6, 9, 12 (FIG. 6)
Excerpt: FIG. 6 is a pair of photos from the foaming test described in Example 2; the first photo (upper) is a photo of N-octanoyl cysteine solutions at: pH 3 (far left), pH 6 (middle left), pH 9 (middle right) and pH 12 (far right) and the second photo (lower) is a photo of N-octyl cysteine solutions at: pH 3 (far left), pH 6 (middle left), pH 9 (middle right) and pH 12 (far right). (Csurfactant=0.01M and the pH adjusted with […]).

[5] = cited from earlier work
[6] = pH 12, Ccalcium = 5 mg L^−1, Csurfactant = 0.01M, air bubbles

Molecule | CMC ([1]; N-octanoyl-cys prepared by Comparative method 1, pH 9 (NaOH), 25.0° C.) | CMC ([1]; prepared by Exemplary method 1, in Na+ form at pH 8) | Adsorption (%) After 60 min ([2]; operating pH 8, 5 mg L^−1 Cd, listed as N-octanoyl-cys (Comparative method 1)) | Adsorption (%) After 60 min ([2]; operating pH 8, 5 mg L^−1 Cd, listed as N-octanoyl-cys (Exemplary method 1)) | Adsorption (%) After 60 min ([2]; operating pH 12, 5 mg L^−1 Cd) | Adsorption (%) After 60 min ([3]; pH 8, Ccalcium = 5 mg L^−1, Csurfactant = 0.01M) | C(mg L^−1) (RSD %) After 30 min ([3]; pH 8, Ccalcium = 5 mg L^−1, Csurfactant = 0.01M, air bubbles) | pH at which the surfactant starts foaming (foaming point) [4] | pKa of the amide group (protonation) [5] | CMC ([1]; twice-recrystallised surfactant, same protocols as for N-octanoyl-cys) | Adsorption (%) After 60 min ([3]; pH 12, Ccalcium = 5 mg L^−1, Csurfactant = 0.01M) | C(mg L^−1) (RSD %) After 30 min [3, 6] | C(mg L^−1) (RSD %) After 60 min [3, 6] | pKa of the amine group (protonation) [5]
CCCCCCCC(=O)N[C@@H](CS)C(=O)O [N-octanoyl-cys, N-octanoyl-cysteine] | 0.1 M | about 0.09 mol/L | 99.2% | 99.8% | 12.3% | 97% and 97.3% | 0.72 (42.02) mg L^−1 | ~6 | around −0.5 |  |  |  |  | 
N-octyl-cysteine [reference compound] |  |  |  |  |  |  |  |  |  | 0.1 M |  |  |  | 
CCCCCCCCN[C@@H](CS)C(=O)O [N-octyl-cys, N-octyl-cysteine] |  |  |  |  | 14.2% |  |  | > 12 |  |  | 14% and 14.6% | 4.89 (0.87) mg L^−1 | 4.27 (3.31) mg L^−1 | about 10.7
